# Active and inactive are the calls of the source.
# What was measured:
# [1] = biological target: T1, Acyl-homoserine lactone acylase PvdQ (Pseudomonas aeruginosa (strain LESB58), UniProt Q9I194); assay: PvdQ acylase enzyme activity blockers – biochemical, fluorescence, plate reader and imaging, cherry-picks, dose response (AID 493231)
# T1 sequence (Q9I194 whole entry): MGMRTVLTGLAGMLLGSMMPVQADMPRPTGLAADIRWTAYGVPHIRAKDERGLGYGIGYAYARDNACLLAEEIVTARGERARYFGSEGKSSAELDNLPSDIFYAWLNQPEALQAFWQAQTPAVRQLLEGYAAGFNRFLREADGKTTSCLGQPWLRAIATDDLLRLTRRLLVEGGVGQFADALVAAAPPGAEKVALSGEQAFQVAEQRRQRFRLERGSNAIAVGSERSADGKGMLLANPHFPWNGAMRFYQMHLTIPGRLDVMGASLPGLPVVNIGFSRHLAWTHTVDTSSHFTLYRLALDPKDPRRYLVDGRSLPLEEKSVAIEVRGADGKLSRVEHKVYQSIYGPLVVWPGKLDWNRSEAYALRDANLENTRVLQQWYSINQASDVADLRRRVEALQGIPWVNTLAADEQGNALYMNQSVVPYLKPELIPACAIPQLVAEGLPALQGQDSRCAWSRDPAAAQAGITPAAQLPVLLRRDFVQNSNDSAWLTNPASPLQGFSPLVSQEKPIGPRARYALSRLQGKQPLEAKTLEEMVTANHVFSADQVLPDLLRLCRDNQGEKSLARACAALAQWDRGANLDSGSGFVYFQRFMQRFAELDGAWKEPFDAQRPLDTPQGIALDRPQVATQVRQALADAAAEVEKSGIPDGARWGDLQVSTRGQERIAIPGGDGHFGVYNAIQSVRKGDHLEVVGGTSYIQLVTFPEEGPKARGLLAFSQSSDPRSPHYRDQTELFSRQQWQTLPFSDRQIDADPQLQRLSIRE
# Kallikrein-7 = Kallikrein-7 (Homo sapiens, UniProt P49862); assay: Fluorescence Intensity-based biochemical primary high throughput dose response assay to identify activators of kallikrein-7 (K7) zymogen.
# [2] = THP-1 cell cytotoxicity, dose response, cytotoxicity control for non-replicating M. tuberculosis project (AID 489025); assay type: functional
# [3] = HepG2 cell cytotoxicity, dose response, cytotoxicity control for non-replicating M. tuberculosis project (AID 489018); assay type: functional; conditions: Mycobacterium tuberculosis
# cells [4] = assay type: functional
# [5] = test system: Streptococcus sp. 'group A'; assay: Streptococcus pyogenes SK(-)GAS viability under kanamycin – luminescence, BacTiterGlo, confirmation, counter-screen for streptokinase expression inhibitor project, dose response (AID 1900); assay type: functional, organism-based
# [6] = microbe, parasite or virus in culture; assay type: functional; conditions: Mycobacterium tuberculosis
# [7] = biological target: Voltage-gated inwardly rectifying potassium channel KCNH2 (Homo sapiens, UniProt Q12809); assay: concentration-dependent hERG rescue from blockers – cell-based, thallium flux, dose response (AID 2121); assay type: ADME
# Streptococcus = assay: GAS UMAA2166 growth inhibition – luminescence, BacTiterGlo, counter-screen for streptokinase expression inhibitor project, dose response (AID 1915); assay type: functional, organism-based;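 note: potency for reduction of bacterial viability or growth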
# HEK293 = assay: EBV LMP1 TES2 canonical NF-kB signalling blockers – cell-based, HEK293, luciferase, cherry-pick, dose response (AID 588343); assay type: functional; conditions: Homo sapiens
# [8] = blockers of bursicon-stimulated LGR2 cAMP reporter – cell-based, HEK293, CRE-luciferase reporter, cherry pick, set 2, dose response (AID 743343); assay type: functional;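 note: transfected cells were stimulated with diluted bursicon conditioned medium after compound addition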
# [9] = blockade of melanocortin 4 receptor signaling – cell-based, plate reader, cherry pick, counter-screen for LGR2 antagonist project, dose response (AID 743444); assay type: functional;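 note: transfected HEK 293 cells stimulated with alpha-MSH peptide; potency of inhibitors of the alpha-MSH evoked signal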
# [10] = biological target: Luciferin 4-monooxygenase (Photinus pyralis, UniProt P08659); assay: Counter Screen for Luciferase-based Assay Positives. [Related pubchem assays: 620, 618, 411 ]
# HT-1080 = assay: HT1080 cell viability loss – fluorescence readout (AID 620); assay type: functional, cell-based; conditions: Homo sapiens
# [11] = biological target: FAD-linked sulfhydryl oxidase ALR (Homo sapiens, UniProt P55789); assay: ALR-catalysed DTT oxidation blockers – biochemical, H2O2 detection, luminescence, cherry-pick, dose response (AID 493248)
# [12] = biological target: G-protein coupled receptor 55 (Homo sapiens, UniProt Q9Y2T6); assay: selective activators of receptor GPR55 – imaging, U2OS cells, beta-arrestin-GFP redistribution, primary screen (AID 1961); assay type: functional
# Cytochrome P450 3A4 = Cytochrome P450 3A4 (Homo sapiens, UniProt P08684);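 note: CYP3A4 tested as one member of a cytochrome P450 panel screen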
# Major prion protein = Major prion protein (Homo sapiens, UniProt P04156); assay type: functional, cell-based
# cells [13] = assay: cells
# [14] = growth inhibition of yeast DHODH-expressing 3D7 parasites – SYBR Green, dry powder samples, dose response (AID 1159570); assay type: functional, cell-based;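 note: parasite growth measured after 72 hours of compound exposure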
# [15] = P. falciparum Dd2 growth inhibitors, dose response, SYBR Green, cherry-picked samples (AID 1159567); assay type: functional, cell-based
# [16] = Dd2 malaria parasite growth inhibition potency – SYBR Green, dry powder samples, dose response (AID 1159566); assay type: functional, cell-based;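 note: potency for growth inhibition with lower SYBR green DNA signal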
# [17] = growth inhibition of PfATP4-mutant resistant parasites – NITD609-resistant line, SYBR Green, dry powder, dose response (AID 1159571); assay type: functional, cell-based;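 note: parasites synchronized at ring stage by sorbitol before testing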
# [18] = biological target: Eukaryotic translation initiation factor 4E (Mus musculus, UniProt P63073); assay: blockers of eIF4G binding by eIF4E – biochemical, TR-FRET, dose response (AID 855); assay type: functional;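 note: potency for disrupting eIF4E binding to eIF4GI seen as loss of FRET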
# [19] = viability loss in THP-1 monocytes – THP-1 cells, cytotoxicity control for Vif-APOBEC3G degradation inhibitor project, dose response (AID 1117359); assay type: functional; conditions: THP-1
# Paired box protein Pax-8 = Paired box protein Pax-8 (Homo sapiens, UniProt Q06710); assay: PAX8 transcriptional activity inhibition in RMG-I – RMG-I cells, luciferase, cherry-pick, dose response (AID 687027); assay type: functional, cell-based;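 note: luciferase reporter driven by Pax8 target thyroperoxidase promoter measured by SteadyGlo luminescence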
# [20] = OVCAR-3 cell viability loss – plate reader, dry powder samples, PAX8 inhibitor project, dose response (AID 743044); assay type: functional, cell-based
# [21] = OVCAR8 cell viability loss – plate reader, dry powder samples, PAX8 project, dose response (AID 743197); assay type: functional, cell-based; conditions: OVCAR-8
# [22] = toxicity toward HepG2 liver cells – cell-based, plate reader, cherry-pick, antagonist series, cytotoxicity control, dose response (AID 743416); assay type: functional
structure (smiles),measurement,setting,value
O=C(NC1CCCCCCC1)c1cccc(Cl)c1,AC50,[1],5.02 µM (active)
O=C(NC1CCSC1)c1cccc(Cl)c1 (stereo not given),AC50,[1],4.11 µM (active)
CCCOC(=O)Oc1ccc2c(=O)c(Oc3cc(C)cc(C)c3)coc2c1,EC50,Kallikrein-7,3.19 µM (active)
C=CCn1c(C)cc(C2=NN=C(NCc3ccccc3)SC2)c1C,CC50,[2],13.8 µM (active)
same,CC50,[3],> 20 µM (active)
same,IC50,cells [4],10.8 µM (active)
Cc1cccc(/C=C2/SC(N/N=C3\CC4CCC3(C)C4(C)C)=NC2=O)c1 (stereo not given),EC50,[5],1.83 µM (active)
same,CC50,[6],> 40 µM (active)
same,EC50,[7],0.12 µM (active)
same,EC50,Streptococcus,1.3 µM (active)
COc1ccc(OCC(=O)Nc2nccs2)cc1,AC50,HEK293,4.63 µM (active)
same,AC50,[8],5.35 µM (active)
same,AC50,[9],5.99 µM (active)
Cc1nc2cc(-c3nc4cc(N)ccc4o3)ccc2[nH]1,EC50,[10],> 100 µM (not active)
same,EC50,HT-1080,> 50 µM (not active)
same,AC50,[11],1.72 µM (active)
N#CC1=C(N)OC2=C(CC/C2=C\c2ccccc2)C1c1ccccc1 (stereo not given),EC50,[12],> 32 µM (inactive)
same,AC50,Cytochrome P450 3A4,39.8 µM (inconclusive)
COC(=O)[C@H](CC1(c2cn(S(=O)(=O)CC[Si](C)(C)C)c3ccccc23)C(=O)Nc2ccccc21)NC(=O)OC(C)(C)C (stereo not given in full),IC50,Major prion protein,11.7 µM (inactive)
same,IC50,cells [13],> 138 µM (inactive)
COc1ccc2c(c1)CCC1(C)CC(=O)C(Br)=C21 (stereo not given),IC50,Major prion protein,3.21 µM (active)
same,IC50,cells [13],> 138 µM (inactive)
COc1ccc2c3c(n(C)c2c1)[C@@H](CO)N(C(=O)C1CCCC1)CC31CN(C(=O)Nc2cccc(F)c2)C1,AC50,[14],0.818 µM (active)
same,AC50,[15],1.32 µM (active)
same,AC50,[16],1.88 µM (active)
same,AC50,[17],1.24 µM (active)
Cc1cc(C(=O)CSc2nnc(-c3cccs3)o2)c(C)n1-c1ccccc1,EC50,[10],> 100 µM (not active)
same,EC50,HT-1080,22.6 µM (active)
same,AC50,HEK293,5.59 µM (active)
CC(=O)Nc1cccc(NC(=S)Nc2ccc(F)c(Cl)c2)c1,IC50,[18],50 µM (inactive)
COc1cc(NC(=O)c2ccco2)c(OC)cc1NC(=O)CCC(=O)Nc1cc(C)ccc1C,EC50,Kallikrein-7,26.8 µM (inactive)
COc1ccc2cc(C(=O)C3CCCN(C(=O)c4cccnc4)C3)ccc2c1 (stereo not given),EC50,Kallikrein-7,23.7 µM (inactive)
CC(C)CCNC(=O)Cn1c2c(c(-c3ccccc3Cl)cc1=O)CCC2,CC50,[19],> 40 µM (active)
Cc1nc(SC2CCOC2=O)c2c(C)c(C)sc2n1 (stereo not given),IC50,Major prion protein,1.93 µM (active)
same,IC50,cells [13],> 138 µM (inactive)
C[C@@H]1CN([C@H](C)CO)C(=O)c2cc(NC(=O)c3ccccc3)ccc2O[C@@H](C)CCCCO[C@@H]1CN(C)Cc1ccc(C(F)(F)F)cc1,AC50,Paired box protein Pax-8,8.24 µM (active)
same,AC50,[20],50.2 µM (active)
same,AC50,[21],> 70 µM (inactive)
O=C(NC(=S)Nc1ccccc1)c1cc(-c2ccccc2)nc2ccccc12,EC50,[7],0.38 µM (active)
Cc1ccc(-c2nc(-c3ccccc3)no2)cc1,EC50,[10],1.67 µM (active)
same,EC50,HT-1080,> 50 µM (not active)
O=C(NC(=S)Nc1nc(-c2ccc(Br)cc2)cs1)c1ccco1,EC50,[7],7.39 µM (active)
CO/N=C/c1ccc(Sc2ccccc2)c([N+](=O)[O-])c1,AC50,[1],97.2 µM (active)
OCCCNc1[nH]cnc2c3ccccc3nc1-2,CC50,[19],> 40 µM (active)
Cc1ccc(S(=O)(=O)N2[C@@H](CO)CO[C@H]2CC(=O)OCc2ccccc2)cc1,AC50,[22],> 52 µM (inactive)

# — ChEMBL document CHEMBL1201862, “PubChem BioAssay data set” (2004)
